Data published in patent publication US9938274B1, “Naphthyridine compounds, medical combinations and use thereof” (Nanjing Natinefy Pharmatech Co., Ltd., priority 2016, dated 2018).
pIC50: −log10 of the molar value.

Legend:
U87MG tumor = assay: Tumor xenograft model, U87MG, tumor growth inhibition; type: in vivo, nude mice (BALB/cA nu/nu); conditions: 10 mg/kg p.o. QD, day 22
[1] = In vivo pharmacokinetic study in rats
Description: An In Vivo Pharmacokinetic Study in Rats
For intravenous injection, rats are given a dose of 1 mg/kg. For oral administration, rats are given a dose of 5 mg/kg. […] The whole blood is centrifuged at 8000 rpm for 5 min to collect plasma, which is then transferred to 96-well pallet, and stored at −20° C. till LC-MS/MS testing.
Pharmacokinetic parameters among rats after medication are estimated using the non-compartment model of software WinNonlin.
The peak concentration, Cmax: the actual measurements are used;

VEGFR-2 (h) = VEGFR-2 (h) (Homo sapiens (Human), UniProt P35968); assay: HTRF KinEASE TK kinase inhibition assay, VEGFR-2; type: biochemical
Sequence of VEGFR-2 (h) (P35968 20-1356): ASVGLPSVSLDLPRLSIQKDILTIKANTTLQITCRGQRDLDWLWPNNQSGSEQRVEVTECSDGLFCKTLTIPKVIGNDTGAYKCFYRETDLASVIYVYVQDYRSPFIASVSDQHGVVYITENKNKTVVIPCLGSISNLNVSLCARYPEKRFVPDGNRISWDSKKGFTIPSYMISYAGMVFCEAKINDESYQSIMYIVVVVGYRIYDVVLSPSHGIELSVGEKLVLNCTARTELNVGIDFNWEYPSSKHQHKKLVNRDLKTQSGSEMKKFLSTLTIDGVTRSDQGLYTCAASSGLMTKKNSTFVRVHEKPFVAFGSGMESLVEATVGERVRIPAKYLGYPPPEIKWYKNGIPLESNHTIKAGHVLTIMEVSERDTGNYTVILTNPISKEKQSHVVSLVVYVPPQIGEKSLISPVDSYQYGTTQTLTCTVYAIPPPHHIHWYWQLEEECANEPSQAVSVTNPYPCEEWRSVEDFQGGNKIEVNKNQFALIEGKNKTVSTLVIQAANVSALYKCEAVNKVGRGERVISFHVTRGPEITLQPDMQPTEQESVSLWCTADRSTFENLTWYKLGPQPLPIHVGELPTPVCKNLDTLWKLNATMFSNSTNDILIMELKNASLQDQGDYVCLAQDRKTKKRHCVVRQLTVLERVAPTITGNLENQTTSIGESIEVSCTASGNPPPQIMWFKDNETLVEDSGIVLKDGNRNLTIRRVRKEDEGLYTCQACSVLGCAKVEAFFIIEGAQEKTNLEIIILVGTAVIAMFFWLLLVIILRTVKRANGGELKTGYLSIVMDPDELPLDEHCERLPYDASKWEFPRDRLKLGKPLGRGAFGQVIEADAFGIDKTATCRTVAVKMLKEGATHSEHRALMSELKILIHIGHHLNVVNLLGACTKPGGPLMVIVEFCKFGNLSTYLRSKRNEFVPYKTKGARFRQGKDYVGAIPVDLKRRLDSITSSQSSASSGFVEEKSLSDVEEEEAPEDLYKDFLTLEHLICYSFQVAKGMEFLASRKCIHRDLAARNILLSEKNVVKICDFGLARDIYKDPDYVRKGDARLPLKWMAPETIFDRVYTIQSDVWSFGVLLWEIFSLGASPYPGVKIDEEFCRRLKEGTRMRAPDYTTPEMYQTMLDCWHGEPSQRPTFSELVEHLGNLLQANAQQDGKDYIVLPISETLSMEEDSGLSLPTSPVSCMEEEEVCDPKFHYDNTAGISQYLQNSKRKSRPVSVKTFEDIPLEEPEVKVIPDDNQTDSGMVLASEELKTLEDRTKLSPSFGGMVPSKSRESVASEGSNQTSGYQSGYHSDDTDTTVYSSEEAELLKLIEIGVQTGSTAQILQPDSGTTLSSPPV

c-Met (h) = c-Met (h) (Homo sapiens (Human), UniProt P08581); assay: HTRF KinEASE TK kinase inhibition assay, c-Met; type: biochemical
Sequence of c-Met (h) (P08581 25-1390): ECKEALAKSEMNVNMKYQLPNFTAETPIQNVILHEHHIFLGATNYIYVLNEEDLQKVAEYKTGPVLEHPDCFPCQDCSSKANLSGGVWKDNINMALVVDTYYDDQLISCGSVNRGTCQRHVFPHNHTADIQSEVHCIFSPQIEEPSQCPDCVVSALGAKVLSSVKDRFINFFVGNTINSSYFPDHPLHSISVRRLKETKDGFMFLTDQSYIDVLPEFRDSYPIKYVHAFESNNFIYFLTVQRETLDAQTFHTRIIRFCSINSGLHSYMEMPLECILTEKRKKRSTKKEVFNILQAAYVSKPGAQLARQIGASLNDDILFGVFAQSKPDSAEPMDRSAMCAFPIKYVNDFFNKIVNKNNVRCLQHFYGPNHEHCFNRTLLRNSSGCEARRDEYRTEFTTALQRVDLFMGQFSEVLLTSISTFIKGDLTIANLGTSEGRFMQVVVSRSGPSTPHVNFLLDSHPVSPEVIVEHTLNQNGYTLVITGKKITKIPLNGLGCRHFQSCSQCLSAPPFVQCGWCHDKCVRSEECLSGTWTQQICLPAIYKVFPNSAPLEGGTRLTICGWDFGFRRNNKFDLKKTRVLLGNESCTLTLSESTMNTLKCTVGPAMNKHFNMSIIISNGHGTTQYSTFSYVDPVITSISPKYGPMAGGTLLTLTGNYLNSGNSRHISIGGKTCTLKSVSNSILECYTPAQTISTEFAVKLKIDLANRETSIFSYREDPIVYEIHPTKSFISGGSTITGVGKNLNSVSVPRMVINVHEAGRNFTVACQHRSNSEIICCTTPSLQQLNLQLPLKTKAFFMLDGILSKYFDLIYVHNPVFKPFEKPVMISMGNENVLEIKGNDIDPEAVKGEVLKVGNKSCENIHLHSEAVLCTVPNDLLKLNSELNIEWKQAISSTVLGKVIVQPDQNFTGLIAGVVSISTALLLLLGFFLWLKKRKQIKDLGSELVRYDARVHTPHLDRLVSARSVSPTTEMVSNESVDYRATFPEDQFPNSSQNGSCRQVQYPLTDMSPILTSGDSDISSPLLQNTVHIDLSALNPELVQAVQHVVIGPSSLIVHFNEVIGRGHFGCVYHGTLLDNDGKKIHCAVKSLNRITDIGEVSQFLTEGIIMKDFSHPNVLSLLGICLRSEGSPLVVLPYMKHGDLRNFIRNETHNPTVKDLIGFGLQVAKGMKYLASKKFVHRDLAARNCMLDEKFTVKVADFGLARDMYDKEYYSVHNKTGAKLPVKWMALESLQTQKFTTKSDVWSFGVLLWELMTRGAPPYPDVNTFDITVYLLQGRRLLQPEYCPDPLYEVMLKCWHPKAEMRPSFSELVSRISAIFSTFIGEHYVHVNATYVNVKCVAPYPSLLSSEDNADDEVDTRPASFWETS

RET = RET (Homo sapiens (Human), UniProt P07949); assay: HTRF KinEASE TK kinase inhibition assay, RET; type: biochemical
Sequence of RET (P07949 29-1114): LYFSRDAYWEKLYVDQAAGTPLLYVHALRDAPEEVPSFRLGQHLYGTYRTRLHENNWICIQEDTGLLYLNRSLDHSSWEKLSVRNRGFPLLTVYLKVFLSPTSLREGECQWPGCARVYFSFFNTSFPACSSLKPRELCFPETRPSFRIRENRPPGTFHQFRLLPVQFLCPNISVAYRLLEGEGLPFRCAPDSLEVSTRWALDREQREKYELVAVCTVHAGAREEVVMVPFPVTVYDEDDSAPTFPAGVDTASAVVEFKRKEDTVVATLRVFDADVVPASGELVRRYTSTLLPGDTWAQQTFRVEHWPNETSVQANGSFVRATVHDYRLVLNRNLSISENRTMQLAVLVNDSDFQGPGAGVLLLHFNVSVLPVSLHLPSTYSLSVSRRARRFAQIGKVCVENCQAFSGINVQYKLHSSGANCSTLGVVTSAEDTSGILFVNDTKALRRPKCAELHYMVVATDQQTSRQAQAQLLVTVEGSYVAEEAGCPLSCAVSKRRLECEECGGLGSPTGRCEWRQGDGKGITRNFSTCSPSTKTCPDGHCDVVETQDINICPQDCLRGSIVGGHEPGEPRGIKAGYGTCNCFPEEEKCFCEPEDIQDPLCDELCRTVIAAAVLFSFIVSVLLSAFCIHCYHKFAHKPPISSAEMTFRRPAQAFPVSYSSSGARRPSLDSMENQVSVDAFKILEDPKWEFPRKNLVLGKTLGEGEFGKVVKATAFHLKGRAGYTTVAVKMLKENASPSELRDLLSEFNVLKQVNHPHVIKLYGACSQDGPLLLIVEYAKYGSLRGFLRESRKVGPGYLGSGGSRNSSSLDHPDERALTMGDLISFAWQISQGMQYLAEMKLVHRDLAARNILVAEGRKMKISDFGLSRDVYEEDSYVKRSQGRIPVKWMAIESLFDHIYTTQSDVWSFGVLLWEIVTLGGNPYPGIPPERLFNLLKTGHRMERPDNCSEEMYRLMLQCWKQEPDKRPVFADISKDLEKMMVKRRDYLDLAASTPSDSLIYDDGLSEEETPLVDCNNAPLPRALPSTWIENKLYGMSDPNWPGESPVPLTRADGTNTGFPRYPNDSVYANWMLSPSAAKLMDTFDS
Description: A study on inhibition of protein kinases activity at in vitro biochemical level
Material and method: kinases such as c-Met, VEGFR-2, Axl and RET, obtained from Invitrogen; HTRF KinEASE; TK kit (Cisbio Company); 384-well plate (Greiner Company); ATP (Sigma Company), MgCl2 (Sigma Company); PHERAstar FS multifunctional plate reader (BMG Company); conventional centrifuge (StaiteXiangyi Company); incubator (Binder Company).
Preparation of working solution of the compounds: Before test, aliquots of the compounds are removed from the refrigerator, and diluted with pure DMSO to 50× of the level needed; and then the compounds are diluted with deionized water to 4× of the level needed;
Preparation of 1.33× enzymatic buffer: 5× enzymatic buffer (from HTRF kit) is diluted to 1.33× with deionized water, and appropriate components of the final level 1.33× are added: 1.33 mmol/L dithiothreitol (DTT) and 1.33 mmol/L MgCl2;
Preparation of kinase working solution: Met is diluted to 2× final level required, 0.2 ng/μL, with 1.33× enzymatic buffer; […]
Reading HTRF signal: PHERAstar FS is used to read the testing signal, and its setting is as following:
For the original data read from each well, ratio=665 nm/620 nm; […]

Axl kinase = Axl kinase (Homo sapiens (Human), UniProt P30530); assay: HTRF KinEASE TK kinase inhibition assay, Axl; type: biochemical
Sequence of Axl kinase (P30530 26-894): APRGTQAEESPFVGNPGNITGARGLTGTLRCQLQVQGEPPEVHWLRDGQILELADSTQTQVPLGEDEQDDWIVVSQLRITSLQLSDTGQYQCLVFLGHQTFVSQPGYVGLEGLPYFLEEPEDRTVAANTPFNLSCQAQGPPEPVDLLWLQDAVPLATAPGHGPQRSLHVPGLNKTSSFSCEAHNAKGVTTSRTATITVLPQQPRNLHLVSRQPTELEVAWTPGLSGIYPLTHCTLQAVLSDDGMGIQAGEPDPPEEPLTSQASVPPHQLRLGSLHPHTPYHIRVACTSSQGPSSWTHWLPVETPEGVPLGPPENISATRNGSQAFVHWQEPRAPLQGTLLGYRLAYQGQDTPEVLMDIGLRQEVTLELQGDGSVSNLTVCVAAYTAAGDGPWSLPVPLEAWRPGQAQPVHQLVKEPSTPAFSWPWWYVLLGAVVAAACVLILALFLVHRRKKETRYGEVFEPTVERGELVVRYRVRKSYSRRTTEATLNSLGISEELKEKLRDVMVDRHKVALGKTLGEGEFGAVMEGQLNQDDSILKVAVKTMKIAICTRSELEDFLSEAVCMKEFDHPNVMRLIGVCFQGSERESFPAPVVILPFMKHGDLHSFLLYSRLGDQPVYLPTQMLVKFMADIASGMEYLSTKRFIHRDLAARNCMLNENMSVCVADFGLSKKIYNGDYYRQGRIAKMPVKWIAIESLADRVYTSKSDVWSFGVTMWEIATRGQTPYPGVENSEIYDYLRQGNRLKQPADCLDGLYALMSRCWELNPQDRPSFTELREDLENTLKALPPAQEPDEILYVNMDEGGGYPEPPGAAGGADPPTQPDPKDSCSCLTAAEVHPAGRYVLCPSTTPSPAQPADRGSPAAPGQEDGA

| IC50 (VEGFR-2 (h)) [nM] | IC50 (c-Met (h)) [nM] | SMILES | also measured |
| --- | --- | --- | --- |
| – | 13.3 | COc1cc2nccc(Oc3ccc(Nc4nccc5[nH]cc(-c6ccccc6)c(=O)c45)cc3F)c2cc1OCC(C)(C)O [Example 9, 5-((3-fluoro-4-((6-(2-hydroxy-2-methylpropoxy)-7-methoxyquinolin-4-yl)oxy)-phenyl)amino)-3-phenyl-1,6-naphthyridin-4(1H)-one] | – |
| > 5000 | 12.7 | Cn1cc(-c2ccc(F)cc2)c(=O)c2c(Nc3ccc(Oc4ccnc5cc(OCC(C)(C)O)ccc45)c(F)c3)nccc21 [Example 10, 5-((3-fluoro-4-((7-(2-hydroxy-2-methylpropoxy)quinolin-4-yl)oxy)phenyl)amino)-3-(4-fluorophenyl)-1-methyl-1,6-naphthyridin-4(1H)-one] | – |
| > 5000 | 9.5 | CCn1cc(-c2ccc(F)cc2)c(=O)c2c(Nc3ccc(Oc4ccnc5cc(OCC(C)(C)O)ccc45)c(F)c3)nccc21 [Example 11, 1-ethyl-5-((3-fluoro-4-((7-(2-hydroxy-2-methylpropoxy)quinolin-4-yl)oxy)phenyl)-amino)-3-(4-fluorophenyl)-1,6-naphthyridin-4(1H)-one] | – |
| > 5000 | 7.2 | CCCn1cc(-c2ccc(F)cc2)c(=O)c2c(Nc3ccc(Oc4ccnc5cc(OCC(C)(C)O)ccc45)c(F)c3)nccc21 [Example 12, 5-((3-fluoro-4-((7-(2-hydroxy-2-methylpropoxy)quinolin-4-yl)oxy)phenyl)amino)-3-(4-fluorophenyl)-1-propyl-1,6-naphthyridin-4(1H)-one] | – |
| > 5000 | 9 | CC(C)n1cc(-c2ccc(F)cc2)c(=O)c2c(Nc3ccc(Oc4ccnc5cc(OCC(C)(C)O)ccc45)c(F)c3)nccc21 [Example 13, 5-((3-fluoro-4-((7-(2-hydroxy-2-methylpropoxy)quinolin-4-yl)oxy)phenyl)amino)-3-(4-fluorophenyl)-1-isopropyl-1,6-naphthyridin-4(1H)-one] | – |
| > 5000 | 14.3 | CC(C)(O)COc1ccc2c(Oc3ccc(Nc4nccc5c4c(=O)c(-c4ccc(F)cc4)cn5C4CC4)cc3F)ccnc2c1 [Example 14, 1-cyclopropyl-5-((3-fluoro-4-((7-(2-hydroxy-2-methylpropoxy)quinolin-4-yl)oxy)-phenyl)amino)-3-(4-fluorophenyl)-1,6-naphthyridin-4(1H)-one] | – |
| > 5000 | 22.4 | CC(C)(O)COc1ccc2c(Oc3ccc(Nc4nccc5c4c(=O)c(-c4ccc(F)cc4)cn5CC4CO4)cc3F)ccnc2c1 (centres unmarked) [Example 15, 5-((3-fluoro-4-((7-(2-hydroxy-2-methylpropoxy)quinolin-4-yl)oxy)phenyl)amino)-3-(4-fluorophenyl)-1-(oxiran-2-ylmethyl)-1,6-naphthyridin-4(1H)-one] | – |
| > 5000 | 14.4 | COCCn1cc(-c2ccc(F)cc2)c(=O)c2c(Nc3ccc(Oc4ccnc5cc(OCC(C)(C)O)ccc45)c(F)c3)nccc21 [Example 16, 5-((3-fluoro-4-((7-(2-hydroxy-2-methylpropoxy)quinolin-4-yl)oxy)phenyl)amino)-3-(4-fluorophenyl)-1-(2-methoxyethyl)-1,6-naphthyridin-4(1H)-one] | – |
| > 5000 | 40 | CC(C)(O)COc1ccc2c(Oc3ccc(Nc4nccc5c4c(=O)c(-c4ccc(F)cc4)cn5CCO)cc3F)ccnc2c1 [Example 17, 5-((3-fluoro-4-((7-(2-hydroxy-2-methylpropoxy)quinolin-4-yl)oxy)phenyl)amino)-3-(4-fluorophenyl)-1-(2-hydroxyethyl)-1,6-naphthyridin-4(1H)-one] | – |
| > 5000 | 40.3 | CC(C)(O)COc1ccc2c(Oc3ccc(Nc4nccc5c4c(=O)c(-c4ccc(F)cc4)cn5Cc4ccccc4)cc3F)ccnc2c1 [Example 18, 1-benzyl-5-((3-fluoro-4-((7-(2-hydroxy-2-methylpropoxy)quinolin-4-yl)oxy)phenyl)-amino)-3-(4-fluorophenyl)-1,6-naphthyridin-4(1H)-one] | – |

More lines, now with the values behind:

| SMILES | IC50 (VEGFR-2 (h)) [nM] | IC50 (c-Met (h)) [nM] | also measured |
| --- | --- | --- | --- |
| COc1ccc2c(Oc3ccc(Nc4nccc5[nH]cc(-c6ccc(F)cc6)c(=O)c45)cc3F)ccnc2c1 [Comparative compound A, reference compound] | – | – | Tumor growth inhibition rate, % TGI (U87MG tumor): 55.3% |
| O=c1c(-c2ccc(F)cc2)c[nH]c2ccnc(Nc3ccc(Oc4ccnc5cc(OCCO)ccc45)c(F)c3)c12 [Comparative compound C, reference compound] | – | – | CL ([1]; 5 mg/kg i.g.): 31.7 mL/min/kg; Vz ([1]; 5 mg/kg i.g.): 7.89 L/kg; AUC(0-t) ([1]; rat, plasma, iv, 1 mg/kg i.v.): 2290 ng·h/mL; Cmax ([1]; rat, plasma, iv, 1 mg/kg i.v.): 970 ng/mL; clearance ([1]; rat, plasma, iv, 1 mg/kg i.v.): 4.83 mL/min/kg; half-life ([1]; rat, plasma, iv, 1 mg/kg i.v.): 2.35 h; Vd ([1]; rat, plasma, iv, 1 mg/kg i.v., read-out: Vz): 1.21 L/kg; bioavailability ([1]; rat, plasma, oral, 5 mg/kg i.g. vs 1 mg/kg i.v., read-out: F (absolute bioavailability)): 16.2%; AUC(0-t) ([1]; rat, plasma, po, 5 mg/kg i.g.): 1850 ng·h/mL; Cmax ([1]; rat, plasma, po, 5 mg/kg i.g.): 530 ng/mL; half-life ([1]; rat, plasma, po, 5 mg/kg i.g.): 2.14 h |
| COC(C)(C)COc1ccc2c(Oc3ccc(Nc4nccc5[nH]cc(-c6ccc(F)cc6)c(=O)c45)cc3F)ccnc2c1 [Comparative compound D, reference compound] | 60 | – | – |
| COc1cc2c(Oc3ccc(Nc4nccc5[nH]cc(-c6ccc(F)cc6)c(=O)c45)cc3F)ccnc2cc1OCC(C)(C)O [Example 1, 5-((3-fluoro-4-((7-(2-hydroxy-2-methylpropoxy)-6-methoxyquinolin-4-yl)oxy)-phenyl)amino)-3-(4-fluorophenyl)-1,6-naphthyridin-4(1H)-one] | – | 19.4 | – |
| COc1cc2c(Oc3ccc(Nc4nccc5[nH]cc(-c6ccc(F)cc6)c(=O)c45)cc3F)ccnc2cc1OCC(C)O (centres unmarked) [Example 2, 5-((3-fluoro-4-((7-(2-hydroxypropoxy)-6-methoxyquinolin-4-yl)oxy)phenyl)-amino)-3-(4-fluorophenyl)-1,6-naphthyridin-4(1H)-one] | – | 15.6 | – |
| COc1cc2c(Oc3ccc(Nc4nccc5[nH]cc(-c6ccccc6)c(=O)c45)cc3F)ccnc2cc1OCC(C)(C)O [Example 3, 5-((3-fluoro-4-((7-(2-hydroxy-2-methylpropoxy)-6-methoxyquinolin-4-yl)oxy)-phenyl)amino)-3-phenyl-1,6-naphthyridin-4(1H)-one] | – | 20.1 | – |
| CC(C)(O)COc1ccc2c(Oc3ccc(Nc4nccc5[nH]cc(-c6ccccc6F)c(=O)c45)cc3F)ccnc2c1 [Example 5, 5-((3-fluoro-4-((7-(2-hydroxy-2-methylpropoxy)quinolin-4-yl)oxy)phenyl)amino)-3-(2-fluorophenyl)-1,6-naphthyridin-4(1H)-one] | – | 9.4 | – |
| CC(C)(O)COc1ccc2c(Oc3ccc(Nc4nccc5[nH]cc(-c6cccc(F)c6)c(=O)c45)cc3F)ccnc2c1 [Example 6, 5-((3-fluoro-4-((7-(2-hydroxy-2-methylpropoxy)quinolin-4-yl)oxy)phenyl)amino)-3-(3-fluorophenyl)-1,6-naphthyridin-4(1H)-one] | – | 7.9 | – |
| CC(C)(O)COc1ccc2c(Oc3ccc(Nc4nccc5[nH]cc(-c6ccccc6)c(=O)c45)cc3F)ccnc2c1 [Example 7, 5-((3-fluoro-4-((7-(2-hydroxy-2-methylpropoxy)quinolin-4-yl)oxy)phenyl)amino)-3-phenyl-1,6-naphthyridin-4(1H)-one] | – | 7.4 | pIC50 (RET): 7.28; pIC50 (Axl kinase): 7.83 |
| COc1cc2nccc(Oc3ccc(Nc4nccc5[nH]cc(-c6ccc(F)cc6)c(=O)c45)cc3F)c2cc1OCC(C)(C)O [Example 8, 5-((3-fluoro-4-((6-(2-hydroxy-2-methylpropoxy)-7-methoxyquinolin-4-yl)oxy)-phenyl)amino)-3-(4-fluorophenyl)-1,6-naphthyridin-4(1H)-one] | – | 16.8 | – |
